Key:
SW480 cells = test: Neutral red uptake (NRU) cell viability assay, 72 h; assay type: cell-based, human; conditions: SW480, 72 h of exposition
Description: (§1) The prenylflavonoids and NAR were pre-dissolved in DMSO, while 5-FU, IRT and OxPt were pre-dissolved in distilled water. […] During screening for antiproliferative effects, SW480, SW620, and CaCo-2 were exposed to various concentrations of individual compounds in culture medium: XH, IXH, 6-PN and 8-PN (1–100 μmol/L), NAR (1–200 µmol/L), 5-FU and IRT (0.1–100 µmol/L), and OxPt (0.1–25 µmol/L). The cells cultured in medium with 0.1% DMSO or 0.2% DMSO (for 8-PN only) were used as untreated control samples. In the case of OxPt, the untreated control sample contained cells cultured in medium only. The cells treated with 10% DMSO served as a positive control. Neutral red uptake (NRU) assay was used to determine the number of viable cells after 72 h of exposition. The effect of prenylflavonoids and NAR on 5-FU, IRT or OxPt efficacy was evaluated using CalcuSyn (ver. 1.1) software.
(§2) In the NRU assay, the cells were cultured in 96-well plates (SW480 and SW620: 2500 cells/well; CaCo-2 cells: 200 cells/well) and exposed to the tested compounds for 72 h. Thereafter, the medium was removed and 100 μL of neutral red-containing medium was added into each well and the plates were incubated at 37 °C for an additional 3 h. Then the cells were washed with 100 μL of PBS and fixed in a solution of 0.5% formaldehyde/1% calcium chloride for 15 minutes. The neutral red dye was extracted from the viable cells with a solvent (50% ethanol/1% acetic acid) by shaking for 30 min at room temperature. The absorbance of solubilized dye was measured using the spectrophotometer Infinite M200 (Tecan, Männedorf, Switzerland) at 540 nm. Each sample was assayed in six parallels and three independent experiments were performed. The viabilities of treated cells were expressed as a percentage of untreated controls (100%).
(§3) All calculations were done using Microsoft Excel and GraphPad Prism 7.03 (GraphPad Software, La Jolla, CA, USA). All values were expressed as mean ± S.D. of a given number of experiments. Statistical significance (evaluated using a one-way ANOVA with Dunett’s test) was acceptable to a level of p < 0.05. The concentration inducing a 50% decrease of cell viability as compared to control (IC50) was calculated using GraphPad Prism 7.03—nonlinear regression.

SW620 cells [1] = test: as above; assay type: cell-based, human
Description: as §1, §2, §3

[2] = test system: proliferating CaCo-2 cells; test: as above; assay type: cell-based; conditions: Homo sapiens, CaCo-2 proliferating, 72 h of exposition
Experimental: (§4) The CaCo-2 cell line was cultured in EMEM medium supplemented with 10% heat-inactivated FBS, 1% non-essential amino acids, 1% glutamine, and 0.5% penicillin/streptomycin. The cells were grown in 96-well plates for 3 (proliferating cells) and 21 (differentiated cells) days in a humidified atmosphere containing 5% CO2 at 37 °C and subcultured every 3 days.
as §1, §2, §3

[3] = test system: differentiated CaCo-2 cells; test: as above; assay type: cell-based; conditions: Homo sapiens, CaCo-2 differentiated, 72 h of exposition
Experimental: as §4, §1, §2, §3

SW620 cells [4] = test: Cellular ROS formation (H2DCF-DA oxidation); assay type: cell-based, human; conditions: for ROS production vs control: SW620, compound alone at its IC50, 0.5-24 h incubation
Experimental: To assess ROS generation in SW620 cells, a measurement of 2′,7′-dichlorodihydrofluorescein-diacetate (H2DCF-DA) oxidation was used. Cells (seeded in a 96-well plate at a density of 2500 cells/well) were washed with PBS buffer and incubated with 100 μL of 5 μM H2DCF-DA in Hank’s balanced salt solution (HBSS). […] Finally, fluorescence intensity was measured at the excitation and emission wavelengths of 485 nm/525 nm for 50 min at 37 °C using the microplate reader Infinite M200 (Tecan, Männedorf, Switzerland). The cells incubated in HBSS with DMSO only (as a solvent) were used as untreated control samples, while those incubated in the presence of 3% H2O2 were used as a positive control.
As is generally accepted, cancer cells generate more ROS than do normal cells and at the same time, they are sensitive to the effect of agents which augment oxidative stress and thus push these stressed cells beyond their limit. Therefore, the pro-oxidative effect of prenylflavonoids and NAR was tested in the SW620 cells in order to elucidate the observed antiproliferative effects of these compounds. […] ROS production was measured in the SW620 cells incubated with prenylflavonoids or NAR at a concentration equal to their IC50 using a DCFH-DA assay. ROS production was monitored during 24-hour incubation at several time points (0.5, 1, 4, 8, and 24 h).
(§5) Further, we decided to determine the influence of combinations of the studied flavonoids with cytostatics on ROS formation and the activity of caspases in SW620 cells. Combination effects of flavonoids and cytostatics were investigated at equipotent concentrations of the IC50 values for each compound. ROS production was monitored using a DCFH-DA assay at several time points (0.5, 1, 4, 8, and 24 h) during a 24-hour incubation. The activities of caspases-8, -9, and -3/7 were assessed using a luminescence assay kit at 4, 8, and 24 h of incubation.

caspase-9 in SW620 cells = test: Caspase-Glo assay, initiator caspase-9 activity; assay type: cell-based, human
Experimental: (§6) The activities of initiator caspases-8 and -9 and effector caspases-3/7 were assayed using Caspase-Glo Assays (Promega, Madison, USA). The SW620 cells (seeded in a […]) were cultivated in 12-well plates. […] The untreated control cells were incubated in medium containing only 0.1% DMSO. The lysates were collected into microtubes. Caspase-8, Caspase-9 and Caspases-3/7 reagents were prepared according to the manufacturer’s instructions. The lysates (25 μL in each well) were transferred into a white-walled 384-well-plate for the luminometer, at which point 25 μL of Caspase-8 or Caspase-9 or Caspases-3/7 reagents were added to each well. The plate was gently mixed for 30 seconds and then incubated for 30 minutes at room temperature. The luminescence was measured using the luminometer Infinite M200 (Tecan, Männedorf, Switzerland).
(§7) In order to determine whether the observed antiproliferative activity of the prenylflavonoids and naringenin could be explained at least in part by the induction of apoptosis, the activities of initiator (caspase-8 and caspase-9) as well as effector caspases (caspases-3/7) were assessed in the SW620 cells, which were exposed to the studied compounds for 4, 8, and 24 h, with the activities of the caspases measured using a luminescence assay.
as §5

[5] = test system: caspases-3/7 in SW620 cells; test: Caspase-Glo assay, effector caspases-3/7 activity; assay type: cell-based, human; conditions: for Caspase-3/7 activity, combination with 5-FU / Caspase-3/7 activity, combination with OxPt / Caspase-3/7 activity, combination with IRT: SW620, 24-hour incubation, compared to cytostatic alone; for Induction of caspases-3/7 activity: SW620, compound at IC50, 24-h exposure
Experimental: as §6, §7, §5

caspase-8 in SW620 cells = test: Caspase-Glo assay, initiator caspase-8 activity; assay type: cell-based, human
Experimental: as §6, §7, §5

[6] = test system: colorectal cancer cell lines SW480, SW620 and CaCo-2; test: Antiproliferative effect (NRU assay) across colorectal cancer cell lines; assay type: cell-based; conditions: Homo sapiens; proliferating colon cancer cells (SW480, SW620, CaCo-2), 72 h; read-out: IC50 range over cell lines
Description: as §1, with “Neutral red uptake (NRU) assay was used to determine the number of viable cells after 72 h of exposition.” left out
In the NRU assay, the cells were cultured in 96-well plates (SW480 and SW620: 2500 cells/well; CaCo-2 cells: 200 cells/well) and exposed to the tested compounds for 72 h. […] The absorbance of solubilized dye was measured using the spectrophotometer Infinite M200 (Tecan, Männedorf, Switzerland) at 540 nm. […] The viabilities of treated cells were expressed as a percentage of untreated controls (100%).
All calculations were done using Microsoft Excel and GraphPad Prism 7.03 (GraphPad Software, La Jolla, CA, USA). All values were expressed as mean ± S.D. of a given number of experiments. […]

[7] = Homo sapiens, SW-620, SW620, 72 h of exposition
[8] = SW620, 4-hour incubation, compared to cytostatic alone
[9] = SW620, 4-h incubation, compared to cytostatic alone
[10] = SW620, combination with 5-FU, OxPt or IRT

Row | Structure (SMILES) | IC50 (SW480 cells; Homo sapiens) | IC50 (SW620 cells [1]; [7]) | IC50 [2] | IC50 [3] | ROS production vs control (SW620 cells [4]) | Caspase-3/7 activity, combination with 5-FU [5] | other results
1 | O=c1[nH]cc(F)c(=O)[nH]1 [5-FU, 5-fluorouracil] | 22.6 µM | 34.9 µM |  |  |  |  | 
2 | CC(C)=CCc1c(O)cc2c(c1O)C(=O)C[C@@H](c1ccc(O)cc1)O2 [6-PN, 6-prenylnaringenin] | 14.8 µM | 13.7 µM | 24 µM | 61.9 µM | initially elevated ROS levels in cells and then surprisingly displayed a strong antioxidant effect at the later intervals |  | 
3 | CC(C)=CCc1c(O)cc(O)c2c1O[C@H](c1ccc(O)cc1)CC2=O [8-PN, 8-prenylnaringenin] | 56.3 µM | 24.9 µM | 48.9 µM | > 100 µM | initially elevated ROS levels in cells and then surprisingly displayed a strong antioxidant effect at the later intervals | marked increase | Caspase-9 activity, combination with IRT (caspase-9 in SW620 cells; [8]): more potent than the respective cytostatics alone; Caspase-9 activity, combination with OxPt (caspase-9 in SW620 cells; [8]): more potent than the respective cytostatics alone; Caspase-3/7 activity, combination with OxPt [5]: marked increase; Induction of caspases-3/7 activity ([5]; vs untreated control): 44.7%; Caspase-8 activity, combination with IRT (caspase-8 in SW620 cells; [9]): significantly increased; Caspase-8 activity, combination with OxPt (caspase-8 in SW620 cells; [9]): significantly increased
4 | CCc1c2c(nc3ccc(OC(=O)N4CCC(N5CCCCC5)CC4)cc13)-c1cc3c(c(=O)n1C2)COC(=O)[C@]3(O)CC [IRT, irinotecan] | 1.7 µM | 25.4 µM |  |  |  |  | 
5 | COc1cc(O)c(CC=C(C)C)c2c1C(=O)CC(c1ccc(O)cc1)O2 (centres unmarked) [IXH, isoxanthohumol] | 40.4 µM | 43.7 µM | 47 µM | > 100 µM | strong pro-oxidative effect within the entire 24-hour incubation | marked increase | Caspase-9 activity, combination with 5-FU (caspase-9 in SW620 cells; [8]): more potent than the respective cytostatics alone; Caspase-3/7 activity, combination with IRT [5]: marked increase; Caspase-3/7 activity, combination with OxPt [5]: marked increase; Induction of caspases-3/7 activity ([5]; vs untreated control): 50.5%; Caspase-8 activity, combination with 5-FU (caspase-8 in SW620 cells; [9]): significantly increased; Caspase-8 activity, combination with OxPt (caspase-8 in SW620 cells; [9]): significantly increased
6 | O=C1C[C@@H](c2ccc(O)cc2)Oc2cc(O)cc(O)c21 [NAR, naringenin, reference compound] | > 200 µM | > 200 µM |  |  | only a mild pro-oxidative effect |  | ROS formation, combination with OxPt (SW620 cells [4]; SW620, flavonoid + OxPt at IC50 concentrations, all time points, vs control and flavonoid alone): feeble yet significant (p < 0.05) increase in ROS formation; ROS formation, combination with IRI (SW620 cells [4]; SW620, flavonoid + irinotecan at IC50 concentrations, all time points, vs control and flavonoid alone): feeble yet significant (p < 0.05) increase in ROS formation; Decrease in caspase-9 activity (caspase-9 in SW620 cells; SW620, 4 h of exposure, vs untreated control): 19.7%; Caspase-9 activity, combined with all the cytostatics (caspase-9 in SW620 cells; [10]): marked induction; Suppression of effector caspases (3/7) activity, combined with all the cytostatics ([5]; SW620, combination with 5-FU, OxPt or IRT, all time intervals): up to 61.4%; Inhibition of caspases-3/7 ([5]; SW620, compound alone, 4, 8 and 24 h, vs untreated control): up to 52.7%; Caspase-8 activity, combined with all the cytostatics (caspase-8 in SW620 cells; [10]): marked induction
7 | O=C1[O][Pt]2([NH][C@@H]3CCCC[C@H]3[NH]2)[O]C1=O [OxPt, oxaliplatin] |  |  |  |  |  |  | IC50 (SW480 cells): 1.1 µM; IC50 (SW620 cells [1]; SW620, 72 h of exposition): 1.9 µM
8 | COc1cc(O)c(CC=C(C)C)c(O)c1C(=O)/C=C/c1ccc(O)cc1 [XH, Xanthohumol] | 3.6 µM | 7.3 µM | 6.2 µM | 39.3 µM | strong pro-oxidative effect within the entire 24-hour incubation | marked increase | Caspase-3/7 activity, combination with IRT [5]: marked increase; IC50 [6]: 3.6 to 7.3 µM

From PMC6520918, “Antiproliferative Effects of Hop-derived Prenylflavonoids and Their Influence on the Efficacy of Oxaliplatine, 5-fluorouracil and Irinotecan in Human ColorectalC Cells” (Nutrients, 2019)
